From patent publication US12122778B2, “Activating pyruvate kinase R” (Novo Nordisk Health Care AG, priority 2018, dated 2024) come the findings set out here.

Bounds are passed on as bounds.

One assay has as its target PKR(G332S) (Homo sapiens, UniProt P30613, G332S). Kind of assay: Luminescence Biochemical Assay (Kinase Glo Plus), PKR G332S mutant. To be noted: with FBP; for activation at 1.54 µM: 1.54 μM compound, read-out: AC50 LUM KGP FBP % Fold@1.54 μM mean; for AC50: read-out: AC50 LUM KGP FBP AC50 μM gmean (column A); for Emax: read-out: AC50 LUM KGP FBP MAX % FOLD mean.
A further assay has as its target PKR(R510Q) (Homo sapiens, UniProt P30613, R510Q). The assay can be described thus: Luminescence Biochemical Assay (Kinase Glo Plus), PKR R510Q mutant. To be noted: without FBP; for activation at 1.54 µM: 1.54 μM compound, read-out: AC50 LUM KGP woFBP % Fold@1.54 μM mean; for AC50: read-out: AC50 LUM KGP woFBP AC50 μM gmean; for Emax: read-out: AC50 LUM KGP woFBP MAX % FOLD mean.

A further assay addresses PKR(wt) (Homo sapiens, UniProt P30613). Kind of assay: Luminescence Biochemical Assay (Kinase Glo Plus), wild type PKR. To be noted: without FBP; for activation at 1.54 µM: 1.54 μM compound, read-out: AC50 LUM KGP woFBP % Fold@1.54 μM mean; for AC50: read-out: AC50 LUM KGP woFBP AC50 μM gmean; for Emax: read-out: AC50 LUM KGP woFBP MAX % FOLD mean.

PKR(G332S), sequence (P30613 whole entry G332S): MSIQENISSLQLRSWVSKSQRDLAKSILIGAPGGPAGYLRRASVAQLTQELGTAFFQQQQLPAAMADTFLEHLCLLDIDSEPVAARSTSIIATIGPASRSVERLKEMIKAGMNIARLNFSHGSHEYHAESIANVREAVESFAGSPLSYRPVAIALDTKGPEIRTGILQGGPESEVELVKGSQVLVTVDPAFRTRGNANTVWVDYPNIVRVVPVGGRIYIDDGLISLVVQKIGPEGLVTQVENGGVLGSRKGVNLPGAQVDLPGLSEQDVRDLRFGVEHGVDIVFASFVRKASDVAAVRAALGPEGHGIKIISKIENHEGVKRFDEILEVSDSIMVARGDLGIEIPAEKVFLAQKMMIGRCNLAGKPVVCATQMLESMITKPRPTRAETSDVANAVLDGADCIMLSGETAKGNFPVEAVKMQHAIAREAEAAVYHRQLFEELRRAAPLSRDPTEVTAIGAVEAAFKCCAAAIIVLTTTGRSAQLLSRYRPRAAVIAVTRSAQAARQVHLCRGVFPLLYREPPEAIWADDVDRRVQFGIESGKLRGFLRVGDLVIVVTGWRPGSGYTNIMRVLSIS
PKR(wt), sequence (P30613 whole entry): as the sequence (P30613 whole entry G332S) above, with S332G counted along it
PKR(R510Q), sequence (P30613 whole entry R510Q): as the sequence (P30613 whole entry G332S) above, with S332G, R510Q counted along it

`O=C(NCc1cccc(F)c1)N1CC2=C(C1)CN(S(=O)(=O)c1ccc(OC(F)F)cc1)C2` [Example 21-14, 5-[4-(Difluoromethoxy)benzenesulfonyl]-N-[(3-fluorophenyl)methyl]-1H,2H,3H,4H,5H,6H-pyrrolo[3,4-c]pyrrole-2-carboxamide]: at PKR(G332S), the activation at 1.54 µM lay within 75 to 250%, the half-maximal activity concentration (AC50) was in the range of 0.1 to 1 µM and the Emax was in the range of 75 to 250%. Moreover, at PKR(R510Q), the activation at 1.54 µM lay within 250 to 50000%, the AC50 fell in the range of 1 to 40 µM and the Emax fell in the range of 250 to 500%. Moreover, at PKR(wt), the activation at 1.54 µM lay within 250 to 50000%, the AC50 is 0.1 to 1 µM and the Emax is 250 to 500%.
With `O=C(NCc1ccccc1F)N1CC2=C(C1)CN(S(=O)(=O)c1ccc(OC(F)F)cc1)C2` [Example 21-15, 5-[4-(Difluoromethoxy)benzenesulfonyl]-N-[(2-fluorophenyl)methyl]-1H,2H,3H,4H,5H,6H-pyrrolo[3,4-c]pyrrole-2-carboxamide], on PKR(G332S), the activation at 1.54 µM fell in the range of 75 to 250%, the AC50 was not above 0.1 µM and the Emax was 75 to 250%. On PKR(R510Q), the activation at 1.54 µM lay in the range of 250 to 50000%, the concentration at half-maximal activity (AC50) was not above 0.1 µM and the Emax is 250 to 500%. For the same compound, at PKR(wt), the activation at 1.54 µM was in the range of 250 to 50000%, the AC50 is not above 0.1 µM and the Emax lay in the range of 250 to 500%.
As for `COc1ccc(CNC(=O)N2CC3=C(C2)CN(S(=O)(=O)c2ccc4ncsc4c2)C3)cc1` [Example 21-16, 5-(1,3-Benzothiazole-6-sulfonyl)-N-[(4-methoxyphenyl)methyl]-1H,2H,3H,4H,5H,6H-pyrrolo[3,4-c]pyrrole-2-carboxamide], at PKR(G332S), the activation at 1.54 µM fell in the range of 75 to 250%, the AC50 is not above 0.1 µM and the Emax fell in the range of 75 to 250%. In addition, on PKR(R510Q), the activation at 1.54 µM was in the range of 250 to 50000%, the AC50 was 0.1 to 1 µM and the Emax was in the range of 250 to 500%. Besides, at PKR(wt), the activation at 1.54 µM is 250 to 50000%, the AC50 is not above 0.1 µM and the Emax lay in the range of 250 to 500%.
With `COc1cccc(CNC(=O)N2CC3=C(C2)CN(S(=O)(=O)c2ccc4ncsc4c2)C3)c1` [Example 21-17, 5-(1,3-Benzothiazole-6-sulfonyl)-N-[(3-methoxyphenyl)methyl]-1H,2H,3H,4H,5H,6H-pyrrolo[3,4-c]pyrrole-2-carboxamide], the activation at 1.54 µM on PKR(G332S), on PKR(R510Q) and on PKR(wt) was 75 to 250% each time. The AC50 at PKR(G332S) was not above 0.1 µM; on PKR(R510Q), 1 to 40 µM; on PKR(wt), not above 0.1 µM. For the same compound, the Emax on PKR(G332S), on PKR(R510Q) and on PKR(wt) was 75 to 250% throughout.
`COc1ccccc1CNC(=O)N1CC2=C(C1)CN(S(=O)(=O)c1ccc3ncsc3c1)C2` [Example 21-18, 5-(1,3-Benzothiazole-6-sulfonyl)-N-[(2-methoxyphenyl)methyl]-1H,2H,3H,4H,5H,6H-pyrrolo[3,4-c]pyrrole-2-carboxamide]: the results for the activation at 1.54 µM on PKR(G332S), at PKR(R510Q) and on PKR(wt) were 75 to 250%, 250 to 50000% and 250 to 50000%, respectively. For the same compound, the AC50 at PKR(G332S) was not above 0.1 µM; on PKR(R510Q), 0.1 to 1 µM; on PKR(wt), 0.1 to 1 µM. Also, the Emax on PKR(G332S) lay in the range of 75 to 250%; at PKR(R510Q), 250 to 500%; at PKR(wt), 250 to 500%.
Consider `O=C(NCc1ccc(F)cc1)N1CC2=C(C1)CN(S(=O)(=O)c1ccc3ncsc3c1)C2` [Example 21-19, 5-(1,3-Benzothiazole-6-sulfonyl)-N-[(4-fluorophenyl)methyl]-1H,2H,3H,4H,5H,6H-pyrrolo[3,4-c]pyrrole-2-carboxamide], for which, at PKR(G332S), the activation at 1.54 µM was 75 to 250%, the concentration at half-maximal activity (AC50) is 0.1 to 1 µM and the Emax was 75 to 250%. For the same compound, at PKR(R510Q), the activation at 1.54 µM was in the range of 75 to 250%, the AC50 was 0.1 to 1 µM and the Emax lay within 250 to 500%. Moreover, at PKR(wt), the activation at 1.54 µM is 75 to 250%, the AC50 lay within 0.1 to 1 µM and the Emax lay in the range of 250 to 500%.
As to `O=C(NCc1ccccc1F)N1CC2=C(C1)CN(S(=O)(=O)c1ccc3ncsc3c1)C2` [Example 21-20, 5-(1,3-Benzothiazole-6-sulfonyl)-N-[(2-fluorophenyl)methyl]-1H,2H,3H,4H,5H,6H-pyrrolo[3,4-c]pyrrole-2-carboxamide], on PKR(G332S), the activation at 1.54 µM lay in the range of 75 to 250%, the AC50 is not above 0.1 µM and the Emax lay in the range of 75 to 250%. On PKR(R510Q), the activation at 1.54 µM was 250 to 50000%, the AC50 is not above 0.1 µM and the Emax fell in the range of 250 to 500%. Further, on PKR(wt), the activation at 1.54 µM is 250 to 50000%, the AC50 was not above 0.1 µM and the Emax lay in the range of 250 to 500%.
With `O=C(NCc1cccc(F)c1)N1CC2=C(C1)CN(S(=O)(=O)c1ccc3ncsc3c1)C2` [Example 21-36, 5-(1,3-Benzothiazole-6-sulfonyl)-N-[(3-fluorophenyl)methyl]-1H,2H,3H,4H,5H,6H-pyrrolo[3,4-c]pyrrole-2-carboxamide], the activation at 1.54 µM at PKR(G332S), at PKR(R510Q) and on PKR(wt) was 75 to 250% throughout. For the same compound, the values for the AC50 at PKR(G332S), at PKR(R510Q) and at PKR(wt) were 0.1 to 1 µM, 1 to 40 µM and 1 to 40 µM, respectively. Moreover, the figures for the Emax at PKR(G332S), on PKR(R510Q) and at PKR(wt) were 75 to 250%, 250 to 500% and 250 to 500%, respectively.
With `O=C(NCc1ccccc1F)N1CC2=C(C1)CN(S(=O)(=O)c1cccnc1)C2` [Example 21-37, N-[(2-fluorophenyl)methyl]-5-(pyridine-3-sulfonyl)-1H,2H,3H,4H,5H,6H-pyrrolo[3,4-c]pyrrole-2-carboxamide], at PKR(G332S), the activation at 1.54 µM lay within 75 to 250%, the concentration at half-maximal activity (AC50) lay in the range of 0.1 to 1 µM and the Emax was 75 to 250%. Besides, on PKR(R510Q), the activation at 1.54 µM is 250 to 50000%, the AC50 lay in the range of 0.1 to 1 µM and the Emax lay within 250 to 500%. In addition, on PKR(wt), the activation at 1.54 µM was 75 to 250%, the AC50 was 0.1 to 1 µM and the Emax is 250 to 500%.
As for `O=C(NCc1ccc(F)cc1)N1CC2=C(C1)CN(S(=O)(=O)c1ccc(C(F)(F)F)nc1)C2` [Example 21-39, N-[(4-fluorophenyl)methyl]-5-{[6-(trifluoromethyl)pyridin-3-yl]sulfonyl}-1H,2H,3H,4H,5H,6H-pyrrolo[3,4-c]pyrrole-2-carboxamide], the activation at 1.54 µM on PKR(G332S), at PKR(R510Q) and on PKR(wt) was 75 to 250% each time. The AC50 on PKR(G332S), on PKR(R510Q) and at PKR(wt) was 1 to 40 µM throughout. Also, the Emax at PKR(G332S), at PKR(R510Q) and on PKR(wt) was 75 to 250% throughout.
Consider `O=C(NCc1ccccc1F)N1CC2=C(C1)CN(S(=O)(=O)c1ccc(C(F)(F)F)nc1)C2` [Example 21-40, N-[(2-fluorophenyl)methyl]-5-{[6-(trifluoromethyl)pyridin-3-yl]sulfonyl}-1H,2H,3H,4H,5H,6H-pyrrolo[3,4-c]pyrrole-2-carboxamide], for which, at PKR(G332S), the activation at 1.54 µM was 75 to 250%, the AC50 was 1 to 40 µM and the Emax was 75 to 250%. In addition, on PKR(R510Q), the activation at 1.54 µM was in the range of 75 to 250%, the concentration at half-maximal activity (AC50) is 0.1 to 1 µM and the Emax was 75 to 250%. On PKR(wt), the activation at 1.54 µM was in the range of 75 to 250%, the AC50 lay in the range of 0.1 to 1 µM and the Emax is 75 to 250%.
For `O=C(NCc1ccc(F)cc1)N1CC2=C(C1)CN(S(=O)(=O)c1ccccn1)C2` [Example 21-41, N-[(4-fluorophenyl)methyl]-5-(pyridine-2-sulfonyl)-1H,2H,3H,4H,5H,6H-pyrrolo[3,4-c]pyrrole-2-carboxamide], at PKR(G332S), the activation at 1.54 µM was in the range of 75 to 250%, the AC50 fell in the range of 1 to 40 µM and the Emax lay within 75 to 250%. Moreover, at PKR(R510Q), the activation at 1.54 µM was 75 to 250%, the AC50 was 0.1 to 1 µM and the Emax was in the range of 75 to 250%. On PKR(wt), the activation at 1.54 µM was 75 to 250%, the AC50 lay in the range of 0.1 to 1 µM and the Emax fell in the range of 250 to 500%.
With `O=C(NCc1ccccc1F)N1CC2=C(C1)CN(S(=O)(=O)c1ccccn1)C2` [Example 21-42], the activation at 1.54 µM was 75 to 250% at PKR(G332S), 250 to 50000% at PKR(R510Q) and 250 to 50000% on PKR(wt). Moreover, the AC50 at PKR(G332S), on PKR(R510Q) and on PKR(wt) was 0.1 to 1 µM each time. Further, the figures for the Emax at PKR(G332S), at PKR(R510Q) and on PKR(wt) were 75 to 250%, 250 to 500% and 250 to 500%, respectively.
As to `Cc1cc(CNC(=O)N2CC3=C(C2)CN(S(=O)(=O)c2ccccn2)C3)no1` [Example 21-43, N-[(5-methyl-1,2-oxazol-3-yl)methyl]-5-(pyridine-2-sulfonyl)-1H,2H,3H,4H,5H,6H-pyrrolo[3,4-c]pyrrole-2-carboxamide], on PKR(G332S), the activation at 1.54 µM lay within 75 to 250%, the AC50 is 0.1 to 1 µM and the Emax lay within 75 to 250%. At PKR(R510Q), the activation at 1.54 µM was in the range of 75 to 250%, the AC50 fell in the range of 1 to 40 µM and the Emax lay within 250 to 500%. On PKR(wt), the activation at 1.54 µM is 75 to 250%, the AC50 lay in the range of 1 to 40 µM and the Emax lay within 250 to 500%.
Consider `O=C(OCC1CC1)N1CC2=C(C1)CN(S(=O)(=O)c1ccc(OC(F)F)cc1)C2` [Example 22-2, Cyclopropylmethyl 5-[4-(difluoromethoxy)benzenesulfonyl]-1H,2H,3H,4H,5H,6H-pyrrolo[3,4-c]pyrrole-2-carboxylate], for which, at PKR(G332S), the activation at 1.54 µM was in the range of 75 to 250%, the AC50 lay in the range of 1 to 40 µM and the Emax was 75 to 250%. Further, at PKR(R510Q), the activation at 1.54 µM was 75 to 250%, the AC50 fell in the range of 1 to 40 µM and the Emax is 250 to 500%. At PKR(wt), the activation at 1.54 µM lay within 75 to 250%, the AC50 lay within 1 to 40 µM and the Emax fell in the range of 250 to 500%.
